# Key:
# Recombinant human BACE1 = target: T1, Recombinant human BACE1 (Homo sapiens, UniProt P56817); assay: Assay of BACE1 inhibiting activity; format: biochemical; settings: 50% inhibitory concentration against enzymatic activity of recombinant human BACE1; Table 2
# T1 construct: purchased R&D Systems
# [1] = test system: Neuroblastoma SH-SY5Y cells (SH/APPwt) with human wild-type β-APP excessively expressed; assay: Measurement of β-amyloid (Aβ) production inhibitory effect in cell; format: cell-based; settings: amount needed to inhibit Aβ production by 50%, SH/APPwt cells, 24 hours, Table 3, read-out: IC50
# Method: Neuroblastoma SH-SY5Y cells (SH/APPwt) with human wild-type β-APP excessively expressed therein were prepared at 8×10^5 cells/mL, and 150 μl portions thereof were inoculated into each well of a 96-well culture plate (Falcon). The cells were cultured for 2 hours at 37° C. in a 5% gaseous carbon dioxide incubator. Then, a solution which had been preliminarily prepared by adding and suspending the test compound (DMSO (dimethyl sulfoxide) solution) so as to be 2 μl/50 μl medium was added to the cell sap. Namely, the final DMSO concentration was 1%, and the amount of the cell culture was 200 μl. After the incubation was performed for 24 hours from the addition of the test compound, 100 μl of the culture supernatant was collected from each fraction. The amount of the Aβ in each fraction was measured.
# The Aβ amount was measured as follows. 10 μl of a homogeneous time resolved fluorescence (HTRF) measurement reagent (Amyloid β 1-40 peptide; IBA Molecular Holding, S. A.) and 10 μl of the culture supernatant were put into a 384-well half area microplate (black microplate, Costar) and mixed with each other, and then left standing overnight at 4° C. while the light was shielded. Then, the fluorescence intensity (excitation wavelength: 337 nm, measurement wavelength: 620 nm and 665 nm) was measured with a Wallac 1420 multilabel counter (Perkin Elmer life sciences).
# [2] = Brain distribution studies; format: in vivo; settings: brain/plasma; rat, intravenous 0.5 mg/mL/kg, 30 minutes later; read-out: brain Kp value (area ratio brain/plasma)
# Method: Intravenous administration is carried out to a rat by 0.5 mg/mL/kg dosage of the compound. […] Then, the brain was extracted and 20-25% of homogenate thereof was prepared with distilled water. On the other hand, the obtained blood is used as plasma after centrifuging. Then, to the brain sample was added the control plasma at 1:1. To the plasma samples was added the control brains at 1:1. Each sample was measured using LC/MS/MS. The obtained area ratio (a brain/plasma) was used for the brain Kp value.
# T1 sequence (P56817 46-501): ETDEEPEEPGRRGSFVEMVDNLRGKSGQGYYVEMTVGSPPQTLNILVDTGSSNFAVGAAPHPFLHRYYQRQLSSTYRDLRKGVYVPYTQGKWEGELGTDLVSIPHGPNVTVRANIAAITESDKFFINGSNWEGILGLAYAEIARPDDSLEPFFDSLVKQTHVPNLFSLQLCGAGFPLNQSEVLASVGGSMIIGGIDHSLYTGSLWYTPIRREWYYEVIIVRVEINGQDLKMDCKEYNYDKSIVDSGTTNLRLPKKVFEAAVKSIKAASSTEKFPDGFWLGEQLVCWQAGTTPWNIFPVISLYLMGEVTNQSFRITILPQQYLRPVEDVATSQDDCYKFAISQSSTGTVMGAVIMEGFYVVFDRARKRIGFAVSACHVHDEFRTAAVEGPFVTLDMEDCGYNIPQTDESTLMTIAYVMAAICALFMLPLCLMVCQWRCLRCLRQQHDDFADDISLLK
compound,measurement,setting,value
C[C@@]1(c2cc(Nc3ncccc3C#N)ccc2F)CCSC(N)=N1 [Compound I-11],IC50,Recombinant human BACE1,100 nM
same,IC50,[1],9 nM
same,Kp at 0.5 h,[2],2.2

# — patent publication US20120238557A1, “AMINOTHIAZINE OR AMINOOXAZINE DERIVATIVE HAVING AMINO LINKER” (SHIONOGI & CO., LTD., priority 2009, published 2012)
